Reference: patent US5464617A, “β-lactam compounds” (Hoffmann-La Roche Inc., priority 1994, dated 1995)
Counter-ions that a name gives are not always drawn.

What was measured:
[1] = tested on: Citrobacter freundii 1982; assay: MIC in vitro of a 1:4 combination of ceftriaxone with a compound of formula I (Test D); format: cell-based; settings: for MIC C. freundii 1982: Table 2; for MIC C. freundii 1982 (D): test D
Description: The minimum inhibitory concentration in vitro ([…]) of a 1:4 combination of ceftriaxone with a compound of formula I against Citrobacter freundii 1982 was measured and compiled in Table 2 hereinafter.

E. coli 1346 = assay: Antibacterial activity of the products per se, serial dilution method in liquid medium (Test E); format: cell-based; settings: product per se; for MIC E. coli 1346: Table 3, liquid medium; for MIC E. coli 1346 (E): test E
Excerpt: The antibacterial activity of the products per se is illustrated on the basis of Table 3 hereinafter, the minimum inhibitory concentration […] in vitro against E. coli 1346 being determined using the serial dilution method in liquid medium: […]

[2] = 1:4 combination of ceftriaxone with the compound
[3] = Table 5, particularly preferred products, 1:4 combination with ceftriaxone
[4] = Table 5, particularly preferred products
[5] = Table 4, 1:4 combination of ceftriaxone with the compound

MIC C. freundii 1982 [1, 2]	MIC E. coli 1346 (E. coli 1346)	MIC C. freundii 1982 (D) [1, 5]	MIC E. coli 1346 (E) (E. coli 1346; Table 4)	Structure (SMILES)	other results
2 µg/mL	32 µg/mL	–	–	CS(=O)(=O)OC1=C(C(=O)O)N2C(=O)[C@@H]3[C@H]2[C@H](C1)CN3C(=O)NCc1ccc(O)c(O)c1 [9(d), (1aS,3aR,6bR)-2-(3,4-Dihydroxy-benzylcarbamoyl)-5-methylsulphonyloxy-1-oxo-1a,2,3,3a,4,6b-hexahydro-1H-2,6a-diazacyclobut[cd]indene-6-carboxylic acid sodium salt]	–
0.5 µg/mL	32 µg/mL	–	–	CS(=O)(=O)OC1=C(C(=O)O)N2C(=O)[C@@H]3[C@H]2[C@H](C1)CN3C(=O)NCc1ccc(S(N)(=O)=O)cc1 [9(h), (1aS,3aR,6bR)-5-Methylsulphonyloxy-1-oxo-2-(4-sulphamoylbenzylcarbamoyl)-1a,2,3,3a,4,6b-hexahydro-1H-2,6a-diazacyclobut[cd]indene-6-carboxylic acid sodium salt]	–
2 µg/mL	16 µg/mL	–	–	Cc1ccc(S(=O)(=O)OC2=C(C(=O)O)N3C(=O)[C@@H]4[C@H]3[C@H](C2)CN4C(=O)Nc2ccc(O)cc2)cc1 [9(i), (1aS,3aR,6bR)-2-(4-Hydroxy-phenylcarbamoyl)-5-(4-methyl-phenylsulphonyloxy)-1-oxo-1a,2,3,3a,4,6b-hexahydro-1H-2,6a-diazacyclobut[cd]indene-6-carboxylic acid sodium salt]	–
0.5 µg/mL	16 µg/mL	–	–	Cn1nnnc1SCC(=O)N1C[C@H]2CC(OS(C)(=O)=O)=C(C(=O)O)N3C(=O)[C@@H]1[C@@H]23 [11(b), (1aS,3aR,6bR)-5-Methylsulphonyloxy-2-(1-methyl-1H-tetrazol-5-ylsulphanylacetyl)-1-oxo-1a,2,3,3a,4,6b-hexahydro-1H-2,6a-diazacyclobut[cd]indene-6-carboxylic acid sodium salt]	–
1 µg/mL	4 µg/mL	–	–	O=C(O)CC1=C(C(=O)O)N2C(=O)[C@@H]3[C@H]2[C@H](C1)CN3C(=O)Nc1ccc(O)cc1 [13(a), (1aS,3aR,6bR)-5-carboxymethyl-2-(4-hydroxy-phenycarbamoyl)-1-oxo-1a,2,3,3a,4,6b-hexahydro-1H-2,6a-diazacyclobut[cd]indene-6-carboxylic acid sodium salt]	–
0.25 µg/mL	32 µg/mL	–	–	Cn1nnnc1SCC1=C(C(=O)O)N2C(=O)[C@@H]3[C@H]2[C@H](C1)CN3C(=O)Nc1ccc(O)cc1 [18(a), (1aS,3aR,6bR)-2-(4-Hydroxy-phenylcarbamoyl)-5-(1-methyl-1H-tetrazol-5-ylsulphanylmethyl)-1-oxo-1a,2,3,3a,4,6b-hexahydro-1H-2,6a-diazacyclobut[cd]indene-6-carboxylic acid sodium salt]	–
0.25 µg/mL	32 µg/mL	–	–	Cn1nnnc1SCC1=C(C(=O)O)N2C(=O)[C@@H]3[C@H]2[C@H](C1)CN3C(=O)Nc1ccc(C(N)=O)cc1 [18(b), (1aS,3aR,6bR)-2-(4-Carbamoyl-phenylcarbamoyl)-5-(1-methyl-1H-tetrazol-5-ylsulphanylmethyl)-1-oxo-1a,2,3,3a,4,6b-hexahydro-1H-2,6a-diazacyclobut[cd]indene-6-carboxylic acid sodium salt]	–
0.25 µg/mL	32 µg/mL	–	–	Cn1nnnc1SCC1=C(C(=O)O)N2C(=O)[C@@H]3[C@H]2[C@H](C1)CN3C(=O)N[C@H]1CCNC1=O [18(c), (1aS,3aR,6bR)-2-[(S)-2-Oxo-pyrrolidin-3-ylcarbamoyl)-5-(1-methyl-1H-tetrazol-5-ylsulphanylmethyl]-1-oxo-1a,2,3,3a,4,6b-hexahydro-1H-2,6a-diazacyclobut[cd]indene-6-carboxylic acid sodium salt]	–
–	–	–	–	Nc1nnc(SCC2=C(C(=O)O)N3C(=O)[C@@H]4[C@H]3[C@H](C2)CN4C(=O)Nc2ccc(O)cc2)s1 [18(d), (1aS,3aR,6bR)-5-(5-Amino-1,3,4-thiadiazol-2-ylsulphanylmethyl)-2-(4-hydroxy-phenylcarbamoyl)-1-oxo-1a,2,3,3a,4,6b-hexahydro-1H-2,6a-diazacyclobut[cd]indene-6-carboxylic acid sodium salt]	MIC C. freundii 1982 (D) [1, 3]: ≤ 0.06 µg/mL; MIC E. coli 1346 (E) (E. coli 1346; [4]): 32 µg/mL
–	–	–	–	NC(=O)c1ccc(NC(=O)N2C[C@H]3CC(CSc4ccncc4)=C(C(=O)O)N4C(=O)[C@@H]2[C@@H]34)cc1 [18(e), (1aS,3aR,6bR)-2-(4-Carbamoyl-phenylcarbamoyl)-1-oxo-5-(pyridin-4-ylsulphanylmethyl)-1a,2,3,3a,4,6b-hexahydro-1H-2,6a-diazacyclobut[cd]indene-6-carboxylic acid]	MIC C. freundii 1982 (D) [1, 3]: 0.12 µg/mL; MIC E. coli 1346 (E) (E. coli 1346; [4]): > 32 µg/mL
–	–	0.5 µg/mL	16 µg/mL	Cn1nnnc1SCC1=C(C(=O)O)N2C(=O)[C@@H]3[C@H]2[C@H](C1)CN3C(=O)NCc1ccc(O)cc1 [18(h), (1aS,3aR,6bR)-2-(4-Hydroxy-benzylcarbamoyl)-5-(1-methyl-1H-tetrazol-5-ylsulphanylmethyl)-1-oxo-1a,2,3,3a,4,6b-hexahydro-1H-2,6a-diazacyclobut[cd]indene-6-carboxylic acid sodium salt]	–
–	–	4 µg/mL	32 µg/mL	O=C(O)C1=C(CSc2ccncc2)C[C@@H]2CN(C(=O)NCc3ccc(O)cc3)[C@@H]3C(=O)N1[C@H]23 [18(i), (1aS,3aR,6bR)-2-(4-Hydroxy-benzylcarbamoyl)-1-oxo-5-(pyridin-4-ylsulphanylmethyl)-1a,2,3,3a,4,6b-hexahydro-1H-2,6a-diazacyclobut[cd]indene-6-carboxylic add sodium salt]	–
–	–	0.5 µg/mL	> 32 µg/mL	O=C(O)C1=C(CSc2ccncc2)C[C@@H]2CN(C(=O)Nc3ccc(O)cc3)[C@@H]3C(=O)N1[C@H]23 [18(j), (1aS,3aR,6bR)-2-(4-Hydroxy-phenylcarbamoyl)-1-oxo-5-(pyridin-4-ylsulphanylmethyl)-1a,2,3,3a,4,6b-hexahydro-1H-2,6a-diazacyclobut[cd]indene-6-carboxylic acid sodium salt]	–
–	–	–	–	O=C(O)C1=C(CSc2ccncc2)C[C@@H]2CN(C(=O)C(F)(F)F)[C@@H]3C(=O)N1[C@H]23 [19(g), (1aS,3aR,6bR)-1-Oxo-5-(pyridin-4-ylsulphanylmethyl)-2-trifluoroacetyl-1a,2,3,3a,4,6b-hexahydro-1H-2,6a-diazacyclobut[cd]indene-6-carboxylic acid sodium salt]	MIC C. freundii 1982 (D) [1, 3]: 1 µg/mL; MIC E. coli 1346 (E) (E. coli 1346; [4]): 1 µg/mL
–	–	0.5 µg/mL	2 µg/mL	Nc1nnc(SCC2=C(C(=O)O)N3C(=O)[C@@H]4[C@H]3[C@H](C2)CN4C(=O)C(F)(F)F)s1 [19(h), (1aS,3aR,6bR)-5-(5-Amino-1,3,4-thiadiazol-2-ylsulphanylmethyl)-1-oxo-2-trifluoroacetyl-1a,2,3,3a,4,6b-hexahydro-1H-2,6a-diaza-cyclobut[cd]indene-6-carboxylic acid sodium salt]	–
–	–	1 µg/mL	0.5 µg/mL	CC(=O)N1C[C@H]2CC(CSc3nnc(N)s3)=C(C(=O)O)N3C(=O)[C@@H]1[C@@H]23 [19(i), (1aS,3aR,6bR)-2-Acetyl-5-(5-amino-1,3,4-thiadiazol-2-ylsulphanylmethyl)-1-oxo-1a,2,3,3a,4,6b-hexahydro-1H-2,6a-diazacyclobut[cd]indene-6-carboxylic acid sodium salt]	–
–	–	2 µg/mL	0.5 µg/mL	CC(=O)Nc1nnc(SCC2=C(C(=O)O)N3C(=O)[C@@H]4[C@H]3[C@H](C2)CN4C(C)=O)s1 [19(j), (1aS,3aR,6bR)-2-Acetyl-5-(5-acetylamino-1,3,4-thiadiazol-2-ylsulphanylmethyl)-1-oxo-1a,2,3,3a,4,6b-hexahydro-1H-2,6a-diazacyclobut[cd]indene-6-carboxylic acid sodium salt]	–

Structure (SMILES)	MIC C. freundii 1982 [1, 2]	MIC E. coli 1346 (E. coli 1346)	MIC C. freundii 1982 (D) [1, 5]	MIC E. coli 1346 (E) (E. coli 1346; Table 4)	other results
Cn1nnnc1SCC1=C(C(=O)O)N2C(=O)[C@@H]3[C@H]2[C@H](C1)CN3C(=O)NCCC(=O)OC(C)(C)C [18(f), (1aS,3aR,6bR)-2-(2-t-Butoxycarbonyl-ethylcarbarmoyl)-5-(1-methyl-1H-tetrazol-5-ylsulphanylmethyl)-1-oxo-1a,2,3,3a,4,6b-hexahydro-1H-2,6a-diazacyclobut[cd]indene-6-carboxylic acid sodium salt]	–	–	1 µg/mL	4 µg/mL	–
CC(C)(C)OC(=O)CCNC(=O)N1C[C@H]2CC(C[n+]3ccccc3)=C(C(=O)[O-])N3C(=O)[C@@H]1[C@@H]23 [23(f), (1aS,3aR,6bR)-2-(2-t-Butoxycarbonyl-ethylcarbamoyl)-1-oxo-5-(pyridin-1-yliomethyl)-1a,2,3,3a,4,6b-hexahydro-1H-2,6a-diazacyclobut[cd]indene-6-carboxylate]	–	–	4 µg/mL	> 32 µg/mL	–
CC(=O)OCC1=C(C(=O)O)N2C(=O)[C@@H]3[C@H]2[C@H](C1)CN3C(=O)NCC(=O)OCc1ccccc1 [25(b), (1aS,3aR,6bR)-5-Acetoxymethyl-2-benzyloxycarbonylmethylcarbamoyl-1-oxo-1a,2,3,3a,4,6b-hexahydro-1H-2,6a-diazacyclobut[cd]indene-6-carboxylic acid sodium salt]	–	–	0.25 µg/mL	4 µg/mL	–
CC(=O)OCC1=C(C(=O)O)N2C(=O)[C@@H]3[C@H]2[C@H](C1)CN3C(C)=O [25(c), (1aS,3aR,6bR)-5-Acetoxymethyl-2-acetyl-1-oxo-1a,2,3,3a,4,6b-hexahydro-1H-2,6a-diazacyclobut[cd]indene-6-carboxylic acid sodium salt]	–	–	1 µg/mL	4 µg/mL	–
